Data on one molecule can be found in patent US8859760B2, “Compositions for killing or preventing the growth of microbes” (priority 2008, dated 2014).

In this data set the test system is skin of the mice. Description: Skin irritation test in mice (Draize scoring, Primary Irritation Index). Conditions: for primary irritation index: 24 hr exposure, scored at 24 and 72 hours; for primary irritation index / evaluation of primary irritation index: mice; for mice with very slight erythema: n=6. In kind it is in vivo, Balb/c mice. On the procedure: Lauryl methyl pyrifrin and TMP, two synthesized meso-substituted cationic porphyrins, were tested in vivo to determine the dermal irritation potential to the skin of the mice. The two test agents were prepared with three different concentrations individually, 3 μM, 30 μM, and 300 μM. 10% formic acid and PBS were used as positive and negative control respectively (n=6). […] The back of the animals were clipped free of fur with an electric clipper at least 4 hours before application of the sample. Prior to the application of test agents, each mouse received four parallel epidermal abrasions with a sterile needle at one side of the test area while the skin at the opposite side remained intact. Under anesthesia condition, a 0.5 ml sample of the test article was then applied to each mouse by introduction under a double gauze layer to an area of skin approximately 1″×1″ (2.54×2.54 cm) square. The patches were backed with plastic, covered with a non reactive tape and the entire test site wrapped with a binder. Animals will be returned to their cages. […] The Primary Irritation Index (P.I.I.) (sum of the scored reactions divided by 24 (two scoring intervals multiplied by two test parameters multiplied by six mice)) of the test article was calculated following test completion. A material producing a P.I.I. score of greater than or equal to 5.00 would be considered positive; the material would be considered a primary irritant to the skin (Table 2).

As to `CCCCCCCCCCCC[n+]1ccc(-c2c3nc(c(-c4cc[n+](C)cc4)c4ccc([nH]4)c(-c4cc[n+](C)cc4)c4nc(c(-c5cc[n+](C)cc5)c5ccc2[nH]5)C=C4)C=C3)cc1.Cc1ccc(S(=O)(=O)[O-])cc1.Cc1ccc(S(=O)(=O)[O-])cc1.Cc1ccc(S(=O)(=O)[O-])cc1.Cc1ccc(S(=O)(=O)[O-])cc1` [lauryl methyl pyrifrin], the primary irritation index was found to be 0.00 (3 μM), 0.175 (30 μM) and 1.4 (300 μM). Also, the “evaluation of primary irritation index” value (3 μM) is “no irritation”, the “evaluation of primary irritation index” value (30 μM) is on record as “irritation barely perceptible” and the “evaluation of primary irritation index” value (300 μM) is “slight irritation”. For the same molecule, the erythema observed result is given as “very slight erythema” (30 μM, after 24 hours, abraded area implied); “very slight erythema” (30 μM, after 72 hours); “very slight erythema” (300 μM, after 24 hours, abraded area implied). For the same molecule, the “mice with very slight erythema” value (30 μM, after 24 hours) is reported as 2/6 and the “mice with very slight erythema” value (300 μM, after 24 hours) was 6/6. In addition, the edema observed result (300 μM, after 24 hours) is listed as “Slight edema”. For the same molecule, for the setting “intact area, all concentrations except 300 μM TMP”, the “erythema and edema at the intact area” value is “no erythema and edema”.
